According to US12516058B2, “Small-molecule compounds for controlling endosomal toll-like receptors and therapeutic agent for autoimmune diseases using same” (priority 2020, dated 2026):
Entries after “also recorded” stand apart in the source; their conditions may differ.

Tests used:
TLR9 = molecular target: T1, TLR9 (Mus musculus, UniProt Q9EQU3); assay: TNF-α secretion ELISA after TLR9 agonist ODN2395 in RAW 264.7 cells; assay type: cell-based; details: SK21 to SK82 at 0.5 μM or 2 μM, ODN2395 0.5 μM
T1 construct: endogenous in cells; host or cells: RAW 264.7
T1 sequence (Q9EQU3 26-1032): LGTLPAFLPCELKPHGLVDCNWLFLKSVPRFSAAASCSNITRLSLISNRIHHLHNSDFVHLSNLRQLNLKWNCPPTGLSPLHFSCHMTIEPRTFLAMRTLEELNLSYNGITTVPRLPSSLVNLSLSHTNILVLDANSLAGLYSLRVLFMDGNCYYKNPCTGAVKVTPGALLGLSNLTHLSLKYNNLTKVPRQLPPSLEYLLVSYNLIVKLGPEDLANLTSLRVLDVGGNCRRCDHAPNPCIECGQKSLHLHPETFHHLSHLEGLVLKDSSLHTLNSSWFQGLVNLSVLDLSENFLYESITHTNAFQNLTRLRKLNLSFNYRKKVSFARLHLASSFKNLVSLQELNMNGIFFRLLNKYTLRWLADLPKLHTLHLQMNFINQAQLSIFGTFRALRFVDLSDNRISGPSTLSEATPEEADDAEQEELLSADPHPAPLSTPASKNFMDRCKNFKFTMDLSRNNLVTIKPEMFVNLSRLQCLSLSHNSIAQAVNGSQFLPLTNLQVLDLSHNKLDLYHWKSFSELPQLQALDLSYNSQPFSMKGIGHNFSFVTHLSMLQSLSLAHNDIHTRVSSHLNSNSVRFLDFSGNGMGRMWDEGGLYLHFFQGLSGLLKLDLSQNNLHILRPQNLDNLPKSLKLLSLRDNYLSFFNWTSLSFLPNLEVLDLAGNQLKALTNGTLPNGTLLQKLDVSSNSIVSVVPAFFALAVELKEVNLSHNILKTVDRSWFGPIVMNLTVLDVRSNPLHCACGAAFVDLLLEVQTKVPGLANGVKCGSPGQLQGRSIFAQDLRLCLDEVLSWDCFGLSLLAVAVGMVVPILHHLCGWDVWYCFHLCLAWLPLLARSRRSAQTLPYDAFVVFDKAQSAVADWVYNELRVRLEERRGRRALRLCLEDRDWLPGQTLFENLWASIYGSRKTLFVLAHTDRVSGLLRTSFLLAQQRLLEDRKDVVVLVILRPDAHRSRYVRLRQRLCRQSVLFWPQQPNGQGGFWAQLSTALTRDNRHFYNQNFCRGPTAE
Method: (§1) In order to determine the inhibitory activities of the test-ligand, RAW 264.7 cells were pretreated with each candidate compound for 1 hour, then treated with Pam3CSK4 (synthetic triacyl lipopeptide; TLR1/2, Invitrogen), FSL-1 (synthetic diacyl lipoprotein, TLR2/6, 100 ng/ml), lipopolysaccharide (LPS, TLR4, Sigma Aldrich), imiquimod (IMQ, TLR7, Invitrogen), and ODN2395 (type C CpG repeat motif DNA oligo(5′-[…]-3), TLR9, Bioneer) ligand for 4 hours, and treated with poly I:C (I:C repeat motif double-stranded RNA, TLR3, Invitrogen) and TL8-506 (TLR8, Invitrogen) showing delayed reactivity for 24 hours. After activation of TLR, the supernatant was diluted in an appropriate ratio so as to measure within the standard dose range, transferred to a pre-coated 96-well assay plate, and then treated with mouse TNF-alpha secretion level in accordance with the manufacturer's instructions using a mouse-TNF-alpha ELISA-kit (Invitrogen).
(§2) In order to plot the concentration-dependent LC50 curves, treatment with the SK series ligands at different concentrations up to 200 μM (the highest concentration that could be treated within the level of 0.5% DMSO) was performed. Then, cell viability and toxicity response upon treatment with ligands were analyzed by MTT as described in Examples 1-3. Cell viability in each plot was normalized from negative control (100%; no treatment) to positive control (highest concentration of test-ligand), and LC50 was determined by non-linear regression (Graph Pad Prism 7.0). In order to plot the concentration-dependent IC50 curves, pre-treatment with the SK series ligands was performed at different concentrations up to 50 μM (twice the initial concentration). Cell responses mediated by TLR7 and TLR9 (levels of TNF-α secretion) were analyzed by ELISA as described in Examples 1-4. The cytokine level in each plot was normalized from negative control (non-treated) to positive control (treatment with ligand), and IC50 was determined by non-linear regression (Graph Pad Prism 7.0).
(§3) In order to select potential inhibitory molecules against TLR3/TLR7/TLR8/TLR9 activation, first, MTT (3-(4,5-dimethylthiazol-2-yl)-2,5-diphenyltetrazolium bromide) cell viability assay (FIG. 7) was performed upon treatment with a set of ligands from SK21 to SK82 at a concentration of 20 μM and the inhibitory activity thereof was evaluated by an ELISA assay to monitor the level of TNF-α secretion in RAW 264.7 cells. The experimental ligands from SK21 to SK82 were administered at 0.5 μM or 2 μM to the RAW 264.7 cells and stimulated with Imiquimod (TLR7, 1 μg/ml) and OND2395 (TLR9, 0.5 μM).

TLR7 = molecular target: T2, TLR7 (Mus musculus, UniProt P58681); assay: TNF-α secretion ELISA after TLR7 agonist imiquimod (IMQ) in RAW 264.7 cells; assay type: cell-based; details: SK21 to SK82 at 0.5 μM or 2 μM, Imiquimod 1 μg/ml
T2 construct: endogenous in cells; host or cells: RAW 264.7
T2 sequence (P58681 27-1050): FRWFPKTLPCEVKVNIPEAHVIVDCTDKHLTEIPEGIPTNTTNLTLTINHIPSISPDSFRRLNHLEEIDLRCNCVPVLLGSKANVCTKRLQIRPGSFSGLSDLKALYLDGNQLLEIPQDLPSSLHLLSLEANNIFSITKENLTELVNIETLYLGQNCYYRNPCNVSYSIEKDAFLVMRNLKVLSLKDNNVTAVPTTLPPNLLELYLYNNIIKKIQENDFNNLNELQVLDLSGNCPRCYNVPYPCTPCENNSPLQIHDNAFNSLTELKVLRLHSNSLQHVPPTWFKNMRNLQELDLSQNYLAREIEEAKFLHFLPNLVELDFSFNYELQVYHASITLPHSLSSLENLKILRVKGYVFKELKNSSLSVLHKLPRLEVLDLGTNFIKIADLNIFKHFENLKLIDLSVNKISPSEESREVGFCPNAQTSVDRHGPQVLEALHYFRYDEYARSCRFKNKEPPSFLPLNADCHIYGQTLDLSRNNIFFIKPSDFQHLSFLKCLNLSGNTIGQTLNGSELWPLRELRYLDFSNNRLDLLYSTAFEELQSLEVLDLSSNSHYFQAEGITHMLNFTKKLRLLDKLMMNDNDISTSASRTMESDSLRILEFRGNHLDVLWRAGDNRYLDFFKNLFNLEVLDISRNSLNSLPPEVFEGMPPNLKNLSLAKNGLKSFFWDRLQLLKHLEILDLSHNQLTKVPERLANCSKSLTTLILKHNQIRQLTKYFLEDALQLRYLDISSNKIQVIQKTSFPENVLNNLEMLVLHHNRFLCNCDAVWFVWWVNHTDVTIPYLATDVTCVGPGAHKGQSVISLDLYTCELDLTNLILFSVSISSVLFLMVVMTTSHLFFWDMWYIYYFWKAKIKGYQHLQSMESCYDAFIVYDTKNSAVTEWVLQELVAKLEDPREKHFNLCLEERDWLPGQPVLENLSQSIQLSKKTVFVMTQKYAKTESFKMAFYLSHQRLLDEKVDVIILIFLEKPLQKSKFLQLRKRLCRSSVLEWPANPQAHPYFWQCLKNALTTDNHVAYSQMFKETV
Method: as §1, §2, §3

Structure (SMILES)	inhibitory activity against TLR9 (level of TNF-α secretion) (TLR9)	inhibitory activity against TLR7 (level of TNF-α secretion) (TLR7)
Cc1cc2c(N)c3c(nc2n1CCCN(C)C)CCCC3 [SK39, 1-(3-(dimethylamino)propyl)-2-methyl-5,6,7,8-tetrahydro-1H-pyrrolo[2,3-b]quinolin-4-amine]	significant inhibitory activity; also recorded: significantly reduced	significant inhibitory activity; also recorded: significantly reduced
Cc1c(C)n(CCCN(C)C)c2nc3c(c(N)c12)CCCC3 [SK36, 1-(3-(dimethylamino)propyl)-2,3-dimethyl-5,6,7,8-tetrahydro-1H-pyrrolo[2,3-b]quinolin-4-amine]	significant inhibitory activity; also recorded: significantly reduced	significant inhibitory activity; also recorded: significantly reduced
CN(C)CCCn1c2ccc(OCc3ccccc3)cc2c2c(N)c3c(nc21)CCCC3 [SK69, 9-(benzyloxy)-6-(3-(dimethylamino)propyl)-2,3,4,6-tetrahydro-1H-indolo[2,3-b]quinolin-11-amine]	significant inhibitory activity; also recorded: significantly reduced	significant inhibitory activity; also recorded: significantly reduced
Cc1c(C)n(CCCN(C)Cc2ccccc2)c2nc3c(c(N)c12)CCCCC3 [SK23, 1-(3-(benzyl(methyl)amino)propyl)-2,3-dimethyl-1,5,6,7,8,9-hexahydrocyclohepta[b]pyrrolo[3,2-e]pyridin-4-amine]	significant inhibitory activity; also recorded: significantly reduced	significant inhibitory activity; also recorded: significantly reduced
CNCCCn1c(C)c(C)c2c(N)c3c(nc21)CCCCCC3 [SK75, 2,3-dimethyl-1-(3-(methylamino)propyl)-5,6,7,8,9,10-hexahydro-1H-cycloocta[b]pyrrolo[3,2-e]pyridin-4-amine]	significant inhibitory activity; also recorded: significantly reduced	significant inhibitory activity; also recorded: significantly reduced
CNCCCn1c2ccc(OC)cc2c2c(N)c3c(nc21)CCCC3 [SK54, 9-methoxy-6-(3-(methylamino)propyl)-2,3,4,6-tetrahydro-1H-indolo[2,3-b]quinolin-11-amine]	significant inhibitory activity; also recorded: significantly reduced	significant inhibitory activity; also recorded: significantly reduced
Cc1ccc2c3c(N)c4c(nc3n(CCCN(C)C)c2c1)CCCC4 [SK81, 6-(3-(dimethylamino)propyl)-8-methyl-2,3,4,6-tetrahydro-1H-indolo[2,3-b]quinolin-11-amine]	significant inhibitory activity; also recorded: significantly reduced	significant inhibitory activity; also recorded: significantly reduced
CC(C)Oc1ccc2c(c1)c1c(N)c3c(nc1n2CCCN(C)C)CCCC3 [SK70, 6-(3-(dimethylamino)propyl)-9-isopropoxy-2,3,4,6-tetrahydro-1H-indolo[2,3-b]quinolin-11-amine]	significant inhibitory activity; also recorded: significantly reduced	significant inhibitory activity; also recorded: significantly reduced
CNCCCn1c(C)c(C)c2c(N)c3c(nc21)CCCCC3 [SK24, 2,3-dimethyl-1-(3-(methylamino)propyl)-1,5,6,7,8,9-hexahydrocyclohepta[b]pyrrolo[3,2-e]pyridin-4-amine]	significant inhibitory activity; also recorded: significantly reduced	significant inhibitory activity; also recorded: significantly reduced
CN(C)CCCn1c2ccc(Cl)cc2c2c(N)c3c(nc21)CCCC3 [SK60, 9-chloro-6-(3-(dimethylamino)propyl)-2,3,4,6-tetrahydro-1H-indolo[2,3-b]quinolin-11-amine]	significant inhibitory activity; also recorded: significantly reduced	significant inhibitory activity; also recorded: significantly reduced
CN(C)CCCNc1c2c(nc3c1c1c4ccccc4ccc1n3CCCN(C)C)CCCC2 [SK72, N1-(7-(3-(dimethylamino)propyl)-9,10,11,12-tetrahydro-7H-benzo[4,5]indolo[2,3-b]quinolin-13-yl)-N3,N3-dimethylpropane-1,3-diamine]	significant inhibitory activity; also recorded: significantly reduced	significant inhibitory activity; also recorded: significantly reduced
CN(C)CCCn1c2ccc(F)cc2c2c(N)c3c(nc21)CCCC3 [SK59, 6-(3-(dimethylamino)propyl)-9-fluoro-2,3,4,6-tetrahydro-1H-indolo[2,3-b]quinolin-11-amine]	significant inhibitory activity; also recorded: significantly reduced	significant inhibitory activity; also recorded: significantly reduced
